In ChEMBL document CHEMBL3758166, “Fragment-based discovery of DNA gyrase inhibitors targeting the ATPase subunit of GyrB” (Bioorg Med Chem Lett, 2016):

Experiments:
[1] = molecular target: DNA gyrase subunit B (Staphylococcus aureus, UniProt P0A0K8); experiment: Binding affinity to full length Staphylococcus aureus GyrB by STD-NMR spectroscopic analysis
[2] = molecular target: DNA gyrase (Staphylococcus aureus, UniProt P0A0K8+P20831); experiment: Inhibition of Staphylococcus aureus DNA gyrase ATPase activity using pBR322 DNA as substrate after 30 mins by fluorescence polarization assay; type: protein-complex assay
DNA gyrase, sequence (P0A0K8 whole entry): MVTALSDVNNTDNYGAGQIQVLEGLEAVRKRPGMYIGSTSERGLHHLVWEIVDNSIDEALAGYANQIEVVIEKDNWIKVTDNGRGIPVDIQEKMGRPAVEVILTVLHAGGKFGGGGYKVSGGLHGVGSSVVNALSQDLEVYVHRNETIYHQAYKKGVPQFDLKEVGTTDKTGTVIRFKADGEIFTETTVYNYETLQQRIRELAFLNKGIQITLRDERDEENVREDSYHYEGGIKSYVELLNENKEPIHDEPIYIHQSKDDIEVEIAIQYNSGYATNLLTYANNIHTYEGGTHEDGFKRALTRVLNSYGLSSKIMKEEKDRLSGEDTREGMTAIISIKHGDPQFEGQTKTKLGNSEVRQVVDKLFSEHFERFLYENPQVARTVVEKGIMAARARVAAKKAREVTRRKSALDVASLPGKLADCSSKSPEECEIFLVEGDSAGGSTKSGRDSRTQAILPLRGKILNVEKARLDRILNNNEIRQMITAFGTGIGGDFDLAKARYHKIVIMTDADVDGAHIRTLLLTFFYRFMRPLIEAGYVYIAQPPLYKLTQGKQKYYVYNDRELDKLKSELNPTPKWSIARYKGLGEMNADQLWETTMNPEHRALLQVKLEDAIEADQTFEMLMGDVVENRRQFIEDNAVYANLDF
DNA gyrase, sequence (P20831 whole entry): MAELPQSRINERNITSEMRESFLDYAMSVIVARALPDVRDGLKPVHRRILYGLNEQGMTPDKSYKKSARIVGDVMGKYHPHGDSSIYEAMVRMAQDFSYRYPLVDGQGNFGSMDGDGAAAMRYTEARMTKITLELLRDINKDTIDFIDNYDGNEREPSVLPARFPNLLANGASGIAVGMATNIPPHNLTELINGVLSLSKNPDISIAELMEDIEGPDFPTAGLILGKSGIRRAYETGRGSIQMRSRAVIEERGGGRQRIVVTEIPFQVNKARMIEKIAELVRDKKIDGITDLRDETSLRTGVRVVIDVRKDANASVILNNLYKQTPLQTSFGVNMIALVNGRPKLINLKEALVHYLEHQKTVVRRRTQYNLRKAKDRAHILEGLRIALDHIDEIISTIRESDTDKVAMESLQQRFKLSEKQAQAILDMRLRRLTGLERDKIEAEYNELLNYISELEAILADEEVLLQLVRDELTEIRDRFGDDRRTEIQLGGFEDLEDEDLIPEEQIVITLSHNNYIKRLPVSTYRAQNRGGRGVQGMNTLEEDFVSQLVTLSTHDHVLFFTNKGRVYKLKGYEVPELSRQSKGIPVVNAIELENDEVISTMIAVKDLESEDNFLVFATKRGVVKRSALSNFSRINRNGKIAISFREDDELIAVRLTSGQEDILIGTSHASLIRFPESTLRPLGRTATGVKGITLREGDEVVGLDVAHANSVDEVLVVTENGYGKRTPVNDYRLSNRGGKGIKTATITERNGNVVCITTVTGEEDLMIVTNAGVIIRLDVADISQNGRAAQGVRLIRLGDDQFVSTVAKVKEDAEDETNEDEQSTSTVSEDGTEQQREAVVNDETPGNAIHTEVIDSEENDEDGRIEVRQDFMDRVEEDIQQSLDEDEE

[3] = Binding affinity to Escherichia coli ParE by STD-NMR Spectroscopic analysis

DNA gyrase subunit B, sequence (P0A0K8 whole entry): as the sequence (P0A0K8 whole entry) above

SMILES	IC50 [1]	IC50 [2]	IC50 [3]	IC50 ([3]; read-out: IC50)
O=c1cc(-c2ccccc2)c2c(-c3cnc(-c4cccnc4)s3)n[nH]c2[nH]1	50 µM	1.32 µM	–	–
Cc1n[nH]c2c1C(c1ccccc1F)CC(=O)N2 (configuration not stated)	840 µM	–	Not Active	–
Cc1cc(=O)[nH]c2[nH]nc(-c3cnc(-c4cccnc4)s3)c12	50 µM	3.25 µM	–	–
O=c1ccc2c(-c3cnc(-c4cccnc4)s3)n[nH]c2[nH]1	50 µM	0.265 µM	–	–
O=C1Nc2ccccc2/C1=C\c1cccnc1	840 µM	–	–	50 µM
O=c1[nH]cnc2scc(-c3cccs3)c12	50 µM	–	–	–
Nc1nc(O)cc(-c2ccccc2)n1	50 µM	–	Not Active	–
Cc1cc(O)[nH]c2nnc(-c3ccccc3)c1-2	840 µM	–	Not Active	–
CCCC(=O)Nc1sccc1C(N)=O	50 µM	–	–	50 µM
